Experimental data as given in patent publication US10508088B2, “Methods using HDAC11 inhibitors” (FORMA Therapeutics, Inc., priority 2016, dated 2019).

Molecular target: Recombinant N-terminal GST tag full-length human HDAC11 (Homo sapiens (Human), UniProt Q96DB2)
Experiment: Probe binding HDAC11 assay, time resolved fluorescence (TRF)
Details: read-out: HDAC11 IC50 Range

Chain of Recombinant N-terminal GST tag full-length human HDAC11 (Q96DB2 whole entry): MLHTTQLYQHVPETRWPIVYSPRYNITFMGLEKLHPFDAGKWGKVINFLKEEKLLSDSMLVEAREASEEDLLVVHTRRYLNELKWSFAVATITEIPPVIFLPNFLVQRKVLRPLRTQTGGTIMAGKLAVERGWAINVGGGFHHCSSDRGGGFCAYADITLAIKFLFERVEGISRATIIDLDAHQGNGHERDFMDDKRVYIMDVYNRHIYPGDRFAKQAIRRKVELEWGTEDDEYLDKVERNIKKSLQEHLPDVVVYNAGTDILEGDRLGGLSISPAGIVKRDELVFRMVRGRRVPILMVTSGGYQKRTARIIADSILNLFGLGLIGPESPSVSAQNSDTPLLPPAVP

| Compound | IC50 |
| --- | --- |
| CC(C)n1c(Nc2cccc(C(=O)NO)c2)nc2cc(C(F)(F)F)c(-c3ccccc3)cc21 [Example 16-1, N-hydroxy-3-(1-isopropyl-6-phenyl-5-(trifluoromethyl)-1H-benzo[d]imidazol-2-ylamino)benzamide] | < 500 nM |
| CSc1ccc(-c2cc3[nH]c(Nc4cccc(C(=O)NO)c4)nc3cc2C(F)(F)F)cc1 [Example 36-5, N-hydroxy-3-((6-(4-(methylthio)phenyl)-5-(trifluoromethyl)-1H-benzo[d]imidazol-2-yl)amino)benzamide] | < 500 nM |
| O=C(NO)c1cccc(Nc2nc3cc4c(cc3[nH]2)OCO4)c1 [Example 33-4, 3-((5H-[1,3]dioxolo[4′,5′:4,5]benzo[1,2-d]imidazol-6-yl)amino)-N-hydroxybenzamide] | > 1000 nM |
| Cn1c(Nc2cccc(C(=O)NO)c2)nc2cc(C(F)(F)F)c(C#N)cc21 [Example 11-1, 3-(6-cyano-1-methyl-5-(trifluoromethyl)-1H-benzo[d]imidazol-2-ylamino)-N-hydroxybenzamide] | < 500 nM |
| Cn1ncc2ccc(-c3cc4[nH]c(Nc5cccc(C(=O)NO)c5)nc4cc3C(F)(F)F)cc21 [Example 36-17, N-hydroxy-3-((6-(1-methyl-1H-indazol-6-yl)-5-(trifluoromethyl)-1H-benzo[d]imidazol-2-yl)amino)benzamide] | < 500 nM |
| O=C(NO)c1ccnc(Nc2nc3cc(Cl)c(Cl)cc3o2)c1 [Example 4-7, 2-((5,6-dichlorobenzo[d]oxazol-2-yl)amino)-N-hydroxyisonicotinamide] | < 500 nM |
| O=C(NO)c1cccc(Nc2nc3cc(F)c(F)cc3[nH]2)c1 [Example 33-3, 3-((5,6-difluoro-1H-benzo[d]imidazol-2-yl)amino)-N-hydroxybenzamide] | 500 to 1000 nM |
| O=C(NO)c1cccc(Nc2nc3cc(Cl)c(C(F)(F)F)cc3[nH]2)c1 [Example 33-6, 3-((5-chloro-6-(trifluoromethyl)-1H-benzo[d]imidazol-2-yl)amino)-N-hydroxybenzamide] | < 500 nM |
| Cc1cc2[nH]c(Nc3cccc(C(=O)NO)c3)nc2cc1Cl [Example 33-2, 3-((5-chloro-6-methyl-1H-benzo[d]imidazol-2-yl)amino)-N-hydroxybenzamide] | < 500 nM |
| O=C(NO)c1cc(Nc2nc3cc(Cl)c(Cl)cc3o2)ccc1F [Example 4-1, 5-(5,6-dichlorobenzo[d]oxazol-2-ylamino)-2-fluoro-N-hydroxybenzamide] | < 500 nM |
| O=C(NO)c1cccc(Nc2nc3cc(C(F)(F)F)c(-c4ccccc4CO)cc3[nH]2)c1 [Example 36-11, N-hydroxy-3-((6-(2-(hydroxymethyl)phenyl)-5-(trifluoromethyl)-1H-benzo[d]imidazol-2-yl)amino)benzamide] | < 500 nM |
| COCCn1c(Nc2cccc(C(=O)NO)c2)nc2cc(C#N)c(C(F)(F)F)cc21 [Example 19-1, 3-(5-cyano-1-(2-methoxyethyl)-6-(trifluoromethyl)-1H-benzo[d]imidazol-2-ylamino)-N-hydroxybenzamide] | < 500 nM |
